{"source": "patent US10717788B2", "about": "“Cyclodextrin functionalized nanoparticles for quenching bacterial communications” (University of South Carolina, priority 2014, dated 2020)", "key": {"Vibrio fischeri [1]": {"tested_on": "Vibrio fischeri", "experiment": "Quantification of gene expression during luminescence", "format": "cell-based"}, "[2]": {"experiment": "NMR diffusion experiments, binding affinity of cyclodextrin for N-octanoyl-homoserine lactone", "settings": "based on dissociation constants calculated from the diffusion data", "description": "To confirm that cyclodextrin was the active quenching agent in the model system, NMR diffusion experiments were performed."}, "Vibrio fischeri [3]": {"tested_on": "Vibrio fischeri", "experiment": "Growth studies: luminescence of Vibrio fischeri in vitro", "format": "cell-based"}}}
{"smiles": "OC[C@H]1O[C@@H]2O[C@H]3[C@H](O)[C@@H](O)[C@@H](O[C@H]4[C@H](O)[C@@H](O)[C@@H](O[C@H]5[C@H](O)[C@@H](O)[C@@H](O[C@H]6[C@H](O)[C@@H](O)[C@@H](O[C@H]7[C@H](O)[C@@H](O)[C@@H](O[C@H]8[C@H](O)[C@@H](O)[C@@H](O[C@H]1[C@H](O)[C@H]2O)O[C@@H]8CO)O[C@@H]7CO)O[C@@H]6CO)O[C@@H]5CO)O[C@@H]4CO)O[C@@H]3CO", "note": "[cyclodextrin, β-Cyclodextrin]", "values": [{"measurement": "production of autoinducers and luciferase (gene expression)", "setting": "Vibrio fischeri [1]", "result": "decrease in the production of autoinducers and luciferase"}, {"measurement": "binding of N-octanoyl-homoserine lactone (complex formation)", "setting": "[2]", "result": "able to bind cyclodextrin and form a complex"}, {"measurement": "luminescence", "setting": "Vibrio fischeri [3]", "result": "reduce luminescence"}]}
